Read-outs that look alike come from different tables or passages of the source. No end group written: not given here. *: point of attachment. Myristoyl = CCCCCCCCCCCCCC(=O)*
Columns and labels:
[1] = system: human platelet-rich plasma; conditions: 250 μM peptide
Description: Studies using human platelets were approved by the Institutional Review Board of University of Illinois at Chicago. […] Clot retraction was analyzed with the previously described method (S6, S7). Briefly, mouse platelets (6×10^8/ml) were resuspended in platelet-depleted human plasma, and 0.4 U/ml α-thrombin was added to initiate coagulation. The clots were photographed at various time points. Sizes of retracted clots on photographs were quantified using NIH Image J software. Statistical significance was determined using t-test.
Clot Retraction Assays were carried out as follows: Similar as described before(2, 3), freshly prepared human whole blood was citrated with 1/10 volume of 3.8% sodium citrate. After centrifugation at 1300 rpm for 22 min with break, platelet rich plasma (PRP) was collected. Pre-incubated of PRP with 0.05% DMSO (vehicle), 250 μM mP5 peptide, 250 μM mP13 peptide, or their corresponding scrambled control peptides mP5Scr or mP13Scr for 5 minutes at room temperature. After that, 0.5 U/ml thrombin was added into PRP and mixed gently. The clots were formed and allowed to retract at 37° C. incubator with CO2 and were photographed at various times. The two-dimensional sizes of retracted clots on photographs were quantified using Image J software and were expressed as clot size. Statistical significance was determined using a t test (n=3).

RhoA = RhoA activity assay (GST-RBD pull down) in platelets; format: cell-based, human; conditions: human platelets adherent to fibrinogen
Description: Platelets in modified Tyrode's buffer or adherent on immobilized fibrinogen were lysed quickly in 0.8 ml lysis buffer (50 mM Tris, pH 7.4, 10 mM MgCl2, 500 mM NaCl, 1% Triton X-100, 0.1% SDS, 0.5% deoxycholate, 10 μg/ml each of aprotinin and leupeptin, 1 mM phenylmethylsulfonyl fluoride, and 200 μM sodium vanadate). Lysates were cleared by centrifugation at 18,000 g for 2 minutes at 4° C., and the supernatant was incubated for 1 hour with 30 μg purified GST-Rhotekin RhoA-binding domain fusion protein (GST-RBD) bound to glutathione-Sepharose beads (S10). Samples were washed three times using washing buffer (50 mM Tris, pH 7.4, 10 mM MgCl2, 150 mM NaCl, 1% Triton X-100) and then immunoblotted with an anti-RhoA monoclonal antibody. Cell lysates were also immunoblotted with anti-RhoA as loading control.

human platelets [2] = system: human platelets
Description: Platelet aggregation assays were carried out as follows: Platelet aggregation and secretion was measured in a turbidometric platelet aggregometer (Chronolog) at 37° C. with stirring (1000 rpm). Washed platelets (3×10^8/ml) in modified Tyrode's buffer were stimulated with thrombin (Enzyme Research Laboratories). For talin knockdown platelet aggregation assay stimulated with manganese and ADP, manganese and ADP was mixed prior to experiment to achieve final concentration of 1 mM manganese and 5 μM ADP in reaction tube. Aggregation traces shown are representative of at least three independent experiments.
Platelet aggregation assays were performed with myristoylated peptide mP5, myristoylated peptide of SEQ: ID NO: 87, or their respective scarmbled control peptides, as essentially described herein. Briefly, washed human platelets were preincubated with 25, 50, 100, 250, or 500 μM peptide solubilized in DMSO.

human platelets [3] = conditions: resting platelets, 250 μM peptide
Description: Platelet Adhesion Assays were carried out as follows: As described before(6), microtiter wells were coated with 30 μg/ml fibrinogen in PBS overnight. Washed human platelets in modified Tyrode's buffer in the absence or presence of 1 mM MnCl2 were incubated in the microtiter wells for one hour at 37° C. in a CO2 incubator. After 3 washes, 50 μl of reaction buffer (0.3% p-nitrophenyl phosphate (Sigma) in 1% Triton-X-100, 50 mM sodium acetate, pH 5.0) was added into each microtiter well and incubated at 37° C. for one hour. The reaction was stopped by adding 50 μl of 1 M NaOH. Results were determined by reading OD at 405 nm wave length. The percentage of platelet adhesion was estimated from the ratio of the readings of adherent platelets to that of total platelets. Statistic significance was determined using t test (n=3).

c-Src = conditions: human platelets adherent to fibrinogen
Description: (FIG. 3A) Washed human platelets pre-treated with DMSO, mSRI, or scrambled control peptide were allowed to adhere to fibrinogen and then solubilized at indicated time points. Proteins from lysates were immunoblotted with antibodies to c-Src phosphorylated at Tyr^416, c-Src, or RhoA. GTP-bound RhoA was measured by association with GST-RBD beads (25). See FIG. S4 for quantitative data. (FIG. 3B) Spreading of platelets treated with 0.1% DMSO, scrambled control peptide, or mSRI, in the absence or presence of C3 toxin, Y27632, or 0.01 U/ml thrombin. Platelets were stained with Alexa Fluor 546-conjugated phalloidin.
(FIG. 13A) Platelets were treated with 500 μM control peptide, mP13, mP7, or mP5 peptides, then immunoprecipitated with anti-Gα13 antibody or equal amount of control rabbit IgG. Lysates and immunoprecipitates were immunoblotted with anti-Gα13 or anti-β3 (MAb15) antibody. (FIG. 13B) Human platelets treated with DMSO, Myr-Scrambled peptide or mP5 peptide were allowed to adhere to immobilized fibrinogen, solubilized and analyzed for RhoA activation and c-Src Tyr^416 phosphorylation. (FIG. 13C) Confocal microscopy images of platelets treated with DMSO, Myristoylated Scrambled peptides, and mP5 peptide treated platelets adherent on fibrinogen for 30 minutes, without or with Rho kinase inhibitor Y27632. Merged […] (green) fluorescence and Alexa Fluor 546-conjugated phalloidin (red) fluorescence. (FIG. 13D) Flow cytometry analysis of PAR4AP (50 μM)-induced Oregon-green labelled fibrinogen binding to human platelets pre-treated with DMSO, 250 μM Myr-Scrambled peptide or 250 μM mP5 peptide. (FIG. 13E) Platelets were preincubated with mP5 or scrambled control peptides and then stimulated with thrombin in a platelet aggregometer at 37° C. Platelet aggregation traces were recorded.
Western blot bands were scanned, and analyzed for uncalibrated optical density using NIH Image J software. Student t-test was used to determine statistical significance.

[4] = molecular target: talin association with β3 (Homo sapiens, UniProt Q9Y490); conditions: 500 μM peptide, 0.025 U/ml thrombin at 22° C.
Description: Cell lysates were incubated with rabbit anti-Gα13 IgG (1.5 μg/ml), anti-integrin β3 rabbit serum (5 μl/ml) or an equal amount of rabbit IgG or pre-immune serum at 4° C. overnight, and subsequently with protein A-conjugated Sepharose beads for 1 hour. For the integrin β3 clustering experiment, human platelets (3×10^8) were stimulated with 0.025 U/ml α-thrombin for 2 minutes at room temperature (to avoid platelet aggregation) with or without 2 mM RGDS, then incubated with 5 μl anti-integrin β3 8053 rabbit serum at room temperature for 1 hour, and 5 μg goat anti-rabbit secondary antibody for another 1 hour. Platelets were then solubilized in modified RIPA Buffer. For the un-clustering control and pre-immune serum control, cells were solubilized in modified RIPA Buffer first, than incubated with 5 μl 8053 serum or pre-immune serum. After 3-6 washes with lysis buffer, immunoprecipitates were analyzed by SDS-polyacrylamide gel electrophoresis and Western blots using antibodies against β3, talin, or Gα13. In some experiments, 500 μM control or inhibitor peptides, mP5, mP7 and mP13 were incubated with platelet lysates prior to immunoprecipitation, or 2 mM RGDS was added into washed human platelets before stimulation by 0.025 U/ml α-thrombin. GST bead pull down analysis was previously described^8. […] Bead-bound proteins were analyzed by immunoblotting.

talin association with β3, sequence (Q9Y490 whole entry): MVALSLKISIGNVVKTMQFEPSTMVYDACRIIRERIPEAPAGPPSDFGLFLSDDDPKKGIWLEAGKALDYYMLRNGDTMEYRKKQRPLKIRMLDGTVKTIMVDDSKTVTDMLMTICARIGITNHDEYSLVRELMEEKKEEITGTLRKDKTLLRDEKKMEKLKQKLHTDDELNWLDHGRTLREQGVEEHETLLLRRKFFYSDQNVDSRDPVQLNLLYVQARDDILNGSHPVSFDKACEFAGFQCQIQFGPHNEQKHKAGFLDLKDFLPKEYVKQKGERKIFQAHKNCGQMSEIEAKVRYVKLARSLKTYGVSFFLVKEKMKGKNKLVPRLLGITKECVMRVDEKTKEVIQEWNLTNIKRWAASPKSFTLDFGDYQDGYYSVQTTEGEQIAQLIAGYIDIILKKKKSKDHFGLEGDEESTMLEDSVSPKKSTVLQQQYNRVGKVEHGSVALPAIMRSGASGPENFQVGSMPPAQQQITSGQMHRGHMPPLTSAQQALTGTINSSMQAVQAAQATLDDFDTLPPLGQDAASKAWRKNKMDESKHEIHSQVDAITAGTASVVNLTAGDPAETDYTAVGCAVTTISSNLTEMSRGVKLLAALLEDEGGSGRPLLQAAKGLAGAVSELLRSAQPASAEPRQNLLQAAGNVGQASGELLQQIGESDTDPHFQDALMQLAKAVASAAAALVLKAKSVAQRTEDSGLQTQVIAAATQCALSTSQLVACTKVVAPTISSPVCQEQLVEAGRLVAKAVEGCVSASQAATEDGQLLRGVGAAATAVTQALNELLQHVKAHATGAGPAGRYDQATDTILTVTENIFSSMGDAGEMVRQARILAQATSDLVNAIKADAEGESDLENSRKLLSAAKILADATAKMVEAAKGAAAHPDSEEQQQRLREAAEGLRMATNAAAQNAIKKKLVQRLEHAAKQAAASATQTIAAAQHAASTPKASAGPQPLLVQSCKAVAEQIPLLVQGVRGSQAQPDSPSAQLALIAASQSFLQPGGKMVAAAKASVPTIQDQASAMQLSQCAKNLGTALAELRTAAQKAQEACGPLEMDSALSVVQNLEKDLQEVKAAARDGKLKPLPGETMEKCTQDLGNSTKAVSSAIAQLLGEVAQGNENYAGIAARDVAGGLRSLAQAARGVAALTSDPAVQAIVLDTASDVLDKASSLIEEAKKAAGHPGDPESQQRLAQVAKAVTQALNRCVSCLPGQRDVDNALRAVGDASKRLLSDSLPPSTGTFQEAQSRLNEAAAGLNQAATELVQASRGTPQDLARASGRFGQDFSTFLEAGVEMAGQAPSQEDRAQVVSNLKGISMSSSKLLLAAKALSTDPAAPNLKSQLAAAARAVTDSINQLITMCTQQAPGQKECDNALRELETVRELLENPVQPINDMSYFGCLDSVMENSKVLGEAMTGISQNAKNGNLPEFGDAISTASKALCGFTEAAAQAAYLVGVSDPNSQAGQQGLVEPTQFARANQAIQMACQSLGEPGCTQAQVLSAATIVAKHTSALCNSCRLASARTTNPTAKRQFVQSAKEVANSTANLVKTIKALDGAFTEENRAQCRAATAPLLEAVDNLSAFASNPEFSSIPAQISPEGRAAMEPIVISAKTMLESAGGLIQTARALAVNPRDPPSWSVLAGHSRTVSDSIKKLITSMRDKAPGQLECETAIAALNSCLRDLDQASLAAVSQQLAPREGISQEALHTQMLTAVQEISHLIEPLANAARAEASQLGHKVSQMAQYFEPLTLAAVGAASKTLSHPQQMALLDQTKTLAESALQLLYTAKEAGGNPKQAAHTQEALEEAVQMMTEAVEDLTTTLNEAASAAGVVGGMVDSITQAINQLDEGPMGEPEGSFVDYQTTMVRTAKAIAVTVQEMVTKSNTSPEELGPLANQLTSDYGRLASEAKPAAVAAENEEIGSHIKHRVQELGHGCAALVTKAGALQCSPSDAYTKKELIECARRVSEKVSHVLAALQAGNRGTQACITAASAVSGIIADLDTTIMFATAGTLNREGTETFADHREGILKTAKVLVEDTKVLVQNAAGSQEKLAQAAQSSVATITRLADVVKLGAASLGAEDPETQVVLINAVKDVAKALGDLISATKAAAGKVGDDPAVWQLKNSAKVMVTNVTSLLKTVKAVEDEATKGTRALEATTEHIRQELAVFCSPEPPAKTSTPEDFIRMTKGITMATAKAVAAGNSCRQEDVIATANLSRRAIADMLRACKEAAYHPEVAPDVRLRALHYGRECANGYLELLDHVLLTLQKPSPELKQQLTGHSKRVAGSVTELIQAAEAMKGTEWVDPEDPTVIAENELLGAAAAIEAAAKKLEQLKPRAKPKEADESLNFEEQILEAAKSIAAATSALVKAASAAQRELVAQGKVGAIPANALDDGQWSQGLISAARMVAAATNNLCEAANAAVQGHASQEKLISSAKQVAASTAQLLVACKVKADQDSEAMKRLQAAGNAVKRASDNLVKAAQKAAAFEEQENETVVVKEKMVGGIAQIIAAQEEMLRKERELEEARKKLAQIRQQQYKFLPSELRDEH

Substance	clot retraction [1]	RhoA activation (RhoA activity) (RhoA)	c-Src-dependent transient RhoA inhibition (RhoA)	platelet aggregation induced by thrombin (human platelets [2])	second wave of platelet aggregation (human platelets [2])	platelets aggregation induced by thrombin (human platelets [2]; 30 μM peptide, human platelets)	platelets aggregation induced by thrombin (human platelets [2]; 200 μM peptide)	platelet adhesion to immobilized fibrinogen (human platelets [3])	integrin-dependent phosphorylation of c-Src Tyr416 (c-Src activation) (c-Src)	integrin-dependent phosphorylation of c-Src Tyr416 (c-Src activation) (c-Src; listed as Myr-P5)	talin association with β3 [4]
Myr-EEERA [mP5]	accelerated	increased	inhibited	inhibited	inhibited	inhibited	inhibited	nor does it affect	inhibited	decreased	not
Myristoyl-KFEEERA [mP7]			inhibited						inhibited		
Myristoyl-KFEEERARAKWDT [mP13]	inhibited		inhibited					inhibited	inhibited		inhibited
Myristoyl-LLARRPTKGIHEY [mSRI]	accelerated	accelerated							inhibited		

From patent US10738080B2, “Inhibitors of beta integrin-G protein alpha subunit binding interactions” (priority 2010, dated 2020)
